According to patent US20240368122A1, “JAK2 INHIBITORS AND METHODS OF USE THEREOF” (RELAY THERAPEUTICS, INC., priority 2021, published 2024):
Read-outs that look alike come from different tables or passages of the source.

Tests used:
[1] = target: T1, JAK2 JH2 WT (V536-D812) [W659A, W777A, F794H solubilizing mutations] (Homo sapiens, UniProt O60674, F794H/W659A/W777A); experiment: Surface Plasmon Resonance (SPR) binding assay, JAK2 JH2 domain
T1 construct: **JAK2 JH2 WT (V536-D812) [W659A, W777A, F794H solubilizing mutations]; C-thrombin-avi-His6; thrombin cleavage site (C); His6 (C); purchased Biortus
How it was run: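 Kinetics came from 1:1 fits of single-cycle runs at 20 °C: four 3-fold dilutions from 5 uM for JH1 or 500 nM for JH2, 60 s association, and 300 s or 1200 s dissociation respectively. Protein was freshly captured per compound in the presence of 10 uM stabilizer compound, with running buffer of pH 7.5 HEPES/NaCl/glycerol/DTT plus 2% DMSO.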

[2] = system: TF1 JAK2 V617F STAT3 reporter; experiment: Cellular TF1 STAT3 assay (luciferase reporter), JAK2 V617F; type: cell-based; details: read-out: Cell PD-TF1 JAK2 V617F STAT3 (IC50)
How it was run: (§1)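 Compounds were dispensed as 1000× DMSO stocks (10 mM top, 1:3 steps), then V617F JAK2 TF1 cells carrying a STAT3 or STAT5 luciferase reporter were added. After 18-20 h at 37 °C, ONE-glo reagent was added and luminescence measured.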

[3] = system: TF1 JAK2 V617F STAT5 reporter; experiment: Cellular TF1 STAT5 assay (luciferase reporter), JAK2 V617F; type: cell-based; details: read-out: Cell PD TF1 V617F STAT5 (IC50)
How it was run: as §1

[4] = Homo sapiens, TF-1, TF1 cells, JAK2 V617F

T1 sequence (O60674 536-812 W659A/W777A/F794H): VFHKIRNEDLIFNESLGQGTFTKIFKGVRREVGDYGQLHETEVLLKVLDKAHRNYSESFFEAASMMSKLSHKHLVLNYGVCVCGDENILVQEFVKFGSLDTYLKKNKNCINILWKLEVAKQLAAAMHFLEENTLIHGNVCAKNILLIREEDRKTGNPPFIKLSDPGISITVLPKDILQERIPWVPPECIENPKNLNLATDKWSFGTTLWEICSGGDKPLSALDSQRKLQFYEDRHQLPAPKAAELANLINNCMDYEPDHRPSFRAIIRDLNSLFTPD

Row | Compound | Kd ([1]; SPR, JAK2 JH2 domain) [nM] | IC50 ([2]; TF1 JAK2 V617F) [nM] | IC50 ([3]; TF1 JAK2 V617F) [nM] | Kd [1] [nM] | IC50 [2, 4] [nM] | IC50 [3, 4] [nM]
1 | CNC(=O)c1nnc(NC(=O)C2CC2)cc1Nc1cccc(-c2ccc(C(=O)N(C)CC3=NO[C@H]4CCCC[C@@H]34)nc2)c1OC (single isomer, unassigned) [Compound 194] | 0.01 to 10 | 500 to 5000 | 500 to 5000 |  |  | 
2 | COc1c(Nc2cc(NC(=O)C3CC3)nn3cc(C)nc23)cccc1-c1ccc(C(=O)N(C)Cc2cn(C)nc2C)nc1 [Compound 231] |  |  |  | 0.01 to 10 | 500 to 5000 | 500 to 5000
3 | CNC(=O)c1nnc(NC(=O)C2CC2)cc1Nc1cccc(-c2cnn([C@H]3C[C@H](Cc4cccc(C#N)n4)C3)c2)c1OC [Compound 349] |  |  |  | 0.01 to 10 | 500 to 5000 | 500 to 5000
4 | COc1c(Nc2cc(NC(=O)C3CC3)nn3cc(C)nc23)ccc(C)c1-c1ccc(C(=O)N(C)Cc2cc(C#N)ccn2)nc1 [Compound 256] |  |  |  | 0.01 to 10 | 500 to 5000 | 500 to 5000
5 | CNC(=O)c1nnc(NC(=O)C2CC2)cc1Nc1cccc(-c2cnc(C(=O)N(C)Cc3cccn(C)c3=O)cc2C)c1OC [Compound 24] | 0.01 to 10 | 500 to 5000 | 500 to 5000 |  |  | 
6 | CNC(=O)c1nnc(NC(=O)C2CC2)cc1Nc1ccc(Cl)c(-c2ccc(C(=O)N(C)Cc3cc(C#N)ccn3)cc2)c1OC [Compound 217] |  |  |  | 0.01 to 10 | 500 to 5000 | 500 to 5000
7 | CNC(=O)c1nnc(NC(=O)C2CC2)cc1Nc1cccc(-c2cnn(C3CN(Cc4cccc(N)n4)C3)c2)c1OC [Compound 242] |  |  |  | 0.01 to 10 | 50 to 500 | 50 to 500
8 | C=Cc1cccc(CN2CC(n3cc(-c4cccc(Nc5cc(NC(=O)C6CC6)nnc5C(=O)NC)c4OC)cn3)C2)n1 [Compound 368] |  |  |  | 0.01 to 10 | 50 to 500 | 50 to 500
9 | CNC(=O)c1nnc(NC(=O)C2CC2)cc1Nc1cccc(-c2cnn(C3CN(Cc4ccccc4)C3)c2)c1OC [Compound 130] | 0.01 to 10 | 500 to 5000 | 500 to 5000 |  |  | 
10 | CNC(=O)c1nnc(NC(=O)C2CC2)cc1Nc1cccc(-c2ccc(C(=O)N(C)Cc3cc(C#N)ccn3)nc2C2CC2)c1OC [Compound 137] | 10 to 50 | 5000 to 100000 | 5000 to 100000 |  |  | 
11 | CNC(=O)c1nnc(NC(=O)C2CC2)cc1Nc1cccc(-c2ccc(C(=O)N(C)[C@H](C)c3ccn(C)n3)nc2)c1OC (single isomer, unassigned) [Compound 161] | 0.01 to 10 | 500 to 5000 | 500 to 5000 |  |  | 
12 | CNC(=O)c1nnc(NC(=O)C2CC2)cc1Nc1cccc(-c2ccc(C(=O)N(C)Cc3cnc(C)s3)nc2)c1OC [Compound 211] |  |  |  | 0.01 to 10 | 5000 to 100000 | 500 to 5000
13 | CNC(=O)c1nnc(NC(=O)C2CC2)cc1Nc1cccc(-c2cnn(C3CN(Cc4ccc(C#N)cn4)C3)c2)c1OC [Compound 249] |  |  |  | 10 to 50 | 5000 to 100000 | 5000 to 100000
14 | CNC(=O)c1nnc(NC(=O)C2CC2)cc1Nc1cccc(-c2ccc(C3CN(Cc4cccc(C#N)n4)C3)nc2)c1OC [Compound 266] |  |  |  | 0.01 to 10 | 500 to 5000 | 500 to 5000
15 | CNC(=O)c1nnc(NC(=O)C2CC2)cc1Nc1cccc(-c2cnn(C3CN(Cc4cccc(C#N)n4)C3)c2)c1 [Compound 232] |  |  |  | 10 to 50 | 5000 to 100000 | 5000 to 100000
16 | CNC(=O)c1nnc(NC(=O)C2CC2)cc1Nc1cccc(-c2cnn(C3CN(Cc4cccc(C(=O)N5CCC(C(F)(F)F)C5)n4)C3)c2)c1OC (stereo not drawn) [Compound 358] |  |  |  | 0.01 to 10 | 50 to 500 | 50 to 500
17 | CNC(=O)c1nnc(NC(=O)C2CC2)cc1Nc1cccc(-c2ccc(C(=O)N(C)Cc3ccc(C)cn3)nc2)c1OC [Compound 134] | 0.01 to 10 | 50 to 500 | 500 to 5000 |  |  | 

Row | Compound | Kd ([1]; SPR, JAK2 JH2 domain) [nM] | IC50 ([2]; TF1 JAK2 V617F) [nM] | IC50 ([3]; TF1 JAK2 V617F) [nM] | Kd [1] [nM] | IC50 [2, 4] [nM] | IC50 [3, 4] [nM]
18 | CNC(=O)c1nnc(NC(=O)C2CC2)cc1Nc1cccc(-c2cnn(C3CN(Cc4cccc5c(F)cnn45)C3)c2)c1OC [Compound 381] |  |  |  | 0.01 to 10 | 50 to 500 | 50 to 500
19 | CNC(=O)c1nnc(NC(=O)C2CC2)cc1Nc1cccc(-c2cnn([C@H]3C[C@@H](N(C)c4ccccn4)C3)c2)c1OC [Compound 383] |  |  |  | 0.01 to 10 | 5000 to 100000 | 5000 to 100000
20 | CNC(=O)c1nnc(NC(=O)C2CC2)cc1Nc1ccc(C#N)c(-c2ccc(C(=O)N(C)Cc3cc(C#N)ccn3)cc2)c1OC [Compound 272] |  |  |  | 0.01 to 10 | 500 to 5000 | 500 to 5000
21 | CNC(=O)c1nnc(NC(=O)C2CC2)cc1Nc1cccc(-c2ccc(C(=O)N(C)Cc3cn(C)nc3C)cc2)c1OC [Compound 221] |  |  |  | 0.01 to 10 | 50 to 500 | 50 to 500
22 | CNC(=O)c1nnc(NC(=O)C2CC2)cc1Nc1cccc(-c2cc(C3CN(Cc4ccccn4)C3)n(C)n2)c1OC [Compound 203] |  |  |  | 50 to 500 | 5000 to 100000 | 5000 to 100000
23 | CNC(=O)c1nnc(NC(=O)C2CC2)cc1Nc1cccc(-c2cn([C@@H]3CN(Cc4cccc(C)n4)[C@H]3C)nn2)c1OC (stereo in doubt) [Compound 238] |  |  |  | 0.01 to 10 | 500 to 5000 | 500 to 5000
24 | CNC(=O)c1nnc(NC(=O)C2CC2)cc1Nc1cccc(-c2cnn(C3CN(Cc4cccc(C(C)(C)CO)n4)C3)c2)c1OC [Compound 300] |  |  |  | 0.01 to 10 | 50 to 500 | 50 to 500
25 | CNC(=O)c1nnc(NC(=O)C2CC2)cc1Nc1cccc(-c2ccc(C(=O)N(C)Cc3ccn(C)n3)c(C(F)(F)F)c2)c1OC [Compound 171] | 0.01 to 10 | 500 to 5000 | 500 to 5000 |  |  | 
26 | CNC(=O)c1nnc(NC(=O)C2CC2)cc1Nc1ccc(C)c(-c2ccc(C(=O)N(C)Cc3cn(C)nc3C)nc2)c1OC [Compound 164] | 0.01 to 10 | 50 to 500 | 50 to 500 |  |  | 
27 | CNC(=O)c1nnc(NC(=O)C2CC2)cc1Nc1cccc(-c2cn(C3CN(C(C)C)C3)nc2C(C)O)c1OC (stereo not drawn) [Compound 336] |  |  |  | 50 to 500 | 5000 to 100000 | 5000 to 100000
28 | CNC(=O)c1nnc(NC(=O)C2CC2)cc1Nc1cccc(-c2ccc(C(=O)N(CCOC)Cc3cccn(C)c3=O)nc2)c1OC [Compound 15] | 0.01 to 10 | 5000 to 100000 | 5000 to 100000 |  |  | 
29 | CNC(=O)c1nnc(NC(=O)C2CC2)cc1Nc1cccc(-c2ccc(C(=O)N(C)Cc3cc(C#N)n(C)n3)nc2)c1OC [Compound 71] | 0.01 to 10 | 50 to 500 | 50 to 500 |  |  | 
30 | CNC(=O)c1nnc(NC(=O)C2CC2)cc1Nc1cccc(-c2cnn([C@H]3C[C@@H]([C@H](O)c4ccccn4)C3)c2)c1OC (single isomer, unassigned) [Compound 399] | 0.01 to 10 |  |  |  | 500 to 5000 | 50 to 500
31 | CNC(=O)c1nnc(NC(=O)C2CC2)cc1Nc1cccc(-c2ccc(C(=O)N(C)Cc3cc(S(C)(=O)=O)ccn3)cc2)c1OC [Compound 73] | 0.01 to 10 | 50 to 500 | 50 to 500 |  |  | 
32 | CNC(=O)c1nnc(NC(=O)C2CC2)cc1Nc1ccc(C)c(-c2ccc(C(=O)N(C)Cc3cc(S(C)(=O)=O)ccn3)nc2)c1OC [Compound 347] |  |  |  | 0.01 to 10 | 50 to 500 | 50 to 500
33 | CNC(=O)c1nnc(NC(=O)C2CC2)cc1Nc1cccc(-c2cnc(C(=O)N(C)Cc3cc(C#N)ccn3)cc2C2CC2)c1OC [Compound 153] | 0.01 to 10 | 50 to 500 | 50 to 500 |  |  | 
34 | CNC(=O)c1nnc(NC(=O)C2CC2)cc1Nc1cccc(-c2ccc(C3CN(Cc4cc(C#N)ccn4)C3)nc2)c1OC [Compound 279] |  |  |  | 10 to 50 | 5000 to 100000 | 5000 to 100000
